# Test results taken from patent US12708116B2, “Herbicidal compositions comprising 2,4-D” (BASF SE, priority 2023, dated 2026).
# How the values were obtained:
# Test in all cases: Post-emergence application in field trials
# CYPES = conditions: 21 DAT, water volume 140 l/ha
# ZEAMX = conditions: growth stage 15-16
# DATST = test system: DATST
# SETVI = assay type: in vivo, Setaria viridis; conditions: 15 DAT; g ai/ha A-1 12.5, B-5 1066, C-10 840; growth stage 13-19; height 2-18 cm; water volume 140 l/ha
# AMARE = assay type: in vivo, Amaranthus retroflexus; conditions: 8 DAT; g ai/ha A-1 25, B-5 1066; growth stage 19; height 10-20 cm; water volume 140 l/ha
# HORVW = conditions: growth stage 23-29, height 20-25 cm
# ECHCG = assay type: in vivo, Echinochloa crus-galli
# AMATU = assay type: in vivo, Amaranthus tuberculatos; conditions: 8 DAT; g ai/ha A-1 12.5, B-5 1066; growth stage 19; height 10-20 cm; water volume 140 l/ha
# PORPI = assay type: in vivo; conditions: 8 DAT; g ai/ha A-1 25, B-5 1066; height 2-8 cm; water volume 140 l/ha
# GLXMA = assay type: in vivo, Glycine max; conditions: Example 4; 21 DAT; g ai/ha A-1 12.5, B-5 1066; growth stage 13; height 5-8 cm
# AMAPA = test system: AMAPA
# SETVE = conditions: growth stage 21-23
# DIGSA = test system: DIGSA
smiles,measurement,setting,value
"CCOC(=O)COc1ccccc1Oc1nc(-n2c(=O)cc(C(F)(F)F)n(C)c2=O)c(F)cc1Cl [A-1, ethyl 2-[2-[[3-chloro-5-fluoro-6-[3-methyl-2,6-dioxo-4-(trifluoromethyl)pyrimidin-1-yl]-2-pyridyl]oxy]phenoxy]acetate]",% Herbicidal activity,"CYPES; g ai/ha A-1 12.5, B-5 1066, C-11 655",20%
same,% Herbicidal activity,"CYPES; g ai/ha A-1 50, B-5 1066, C-11 655",42%
same,% Herbicidal activity,"CYPES; g ai/ha A-1 50, B-5 1066",42%
same,% Herbicidal activity,"ZEAMX; Example 4, 7 DAT, g ai/ha A-1 18, B-5 1066, height 50-60 cm",85%
same,% Herbicidal activity,"ZEAMX; Example 4, 21 DAT, g ai/ha A-1 12.5, B-5 1066, height 50-60 cm",80%
same,% Herbicidal activity,"ZEAMX; Example 5, 21 DAT, g ai/ha A-1 12.5, B-4 1066, height 50-60 cm",70%
same,% Herbicidal activity,"ZEAMX; Example 6, 7 DAT, g ai/ha A-1 12.5, B-5 1066, C-11 400, height 25-30 cm",40%
same,% Herbicidal activity,"ZEAMX; Example 6, 28 DAT, g ai/ha A-1 12.5, B-5 1066, C-11 400, height 50-60 cm",85%
same,% Herbicidal activity,"ZEAMX; Example 7, 28 DAT, g ai/ha A-1 12.5, B-4 1066, C-11 400, height 50-60 cm",50%
same,% Herbicidal activity,"ZEAMX; Example 8, 28 DAT, g ai/ha A-1 12.5, B-5 1066, C-12 252, height 50-60 cm",85%
same,% Herbicidal activity,"ZEAMX; Example 9, 28 DAT, g ai/ha A-1 12.5, B-4 1066, C-12 252, height 50-60 cm",50%
same,% Herbicidal activity,"ZEAMX; Example 11, 21 DAT, g ai/ha A-1 12.5, B-4 1066, C-4 12.5, height 50-60 cm",70%
same,% Herbicidal activity,"DATST; Example 4, 7 DAT, g ai/ha A-1 12.5, B-5 1066",90%
same,% Herbicidal activity,"DATST; Example 6, 21 DAT, g ai/ha A-1 12.5, B-5 1066, C-11 400",90%
same,% Herbicidal activity,SETVI,68%
same,% Herbicidal activity,AMARE,88%
same,% Herbicidal activity,"HORVW; Example 4, 21 DAT, g ai/ha A-1 12.5, B-5 1066",60%
same,% Herbicidal activity,"HORVW; Example 5, 7 DAT, g ai/ha A-1 12.5, B-4 1066",60%
same,% Herbicidal activity,"HORVW; Example 6, 28 DAT, g ai/ha A-1 12.5, B-5 1066, C-11 400",60%
same,% Herbicidal activity,"HORVW; Example 7, 28 DAT, g ai/ha A-1 12.5, B-4 1066, C-11 400",90%
same,% Herbicidal activity,"HORVW; Example 8, 21 DAT, g ai/ha A-1 12.5, B-5 1066, C-12 252",80%
same,% Herbicidal activity,"HORVW; Example 9, 21 DAT, g ai/ha A-1 12.5, B-4 1066, C-12 252",80%
same,% Herbicidal activity,"HORVW; Example 10, 21 DAT, g ai/ha A-1 12.5, B-5 1066, C-4 12.5",80%
same,% Herbicidal activity,"HORVW; Example 11, 21 DAT, g ai/ha A-1 12.5, B-4 1066, C-4 12.5",80%
same,% Herbicidal activity,"ECHCG; 13 DAT, g ai/ha A-1 12.5, B-5 1066, C-10 840, growth stage 21-26, height 15-30 cm, water volume 187 l/ha",23%
same,% Herbicidal activity,"ECHCG; 13 DAT, g ai/ha A-1 25, B-5 1066, C-10 840, growth stage 21-26, height 15-30 cm, water volume 187 l/ha",20%
same,% Herbicidal activity,"ECHCG; 13 DAT, g ai/ha A-1 50, B-5 1066, C-10 840, growth stage 21-26, height 15-30 cm, water volume 187 l/ha",23%
same,% Herbicidal activity,"ECHCG; Example 4, 21 DAT, g ai/ha A-1 12.5, B-5 1066, growth stage 23-30, height 15-20 cm",30%
same,% Herbicidal activity,"ECHCG; Example 6, 7 DAT, g ai/ha A-1 12.5, B-5 1066, C-11 400, growth stage 23-30, height 15-20 cm",20%
same,% Herbicidal activity,"ECHCG; Example 6, 28 DAT, g ai/ha A-1 12.5, B-5 1066, C-11 400, growth stage 23-30, height 15-20 cm",20%
same,% Herbicidal activity,"ECHCG; Example 7, 28 DAT, g ai/ha A-1 12.5, B-4 1066, C-11 400, growth stage 23-30, height 15-20 cm",20%
same,% Herbicidal activity,"ECHCG; Example 8, 7 DAT, g ai/ha A-1 12.5, B-5 1066, C-12 252, growth stage 23-30, height 15-20 cm",20%
same,% Herbicidal activity,"ECHCG; Example 8, 21 DAT, g ai/ha A-1 12.5, B-5 1066, C-12 252, growth stage 23-30, height 15-20 cm",30%
same,% Herbicidal activity,"ECHCG; Example 8, 28 DAT, g ai/ha A-1 12.5, B-5 1066, C-12 252, growth stage 23-30, height 15-20 cm",20%
same,% Herbicidal activity,"ECHCG; Example 9, 28 DAT, g ai/ha A-1 12.5, B-4 1066, C-12 252, growth stage 23-30, height 15-20 cm",20%
same,% Herbicidal activity,"ECHCG; Example 10, 21 DAT, g ai/ha A-1 12.5, B-5 1066, C-4 12.5, growth stage 23-30, height 15-20 cm",30%
same,% Herbicidal activity,AMATU,88%
same,% Herbicidal activity,PORPI,90%
same,% Herbicidal activity,GLXMA,90%
same,% Herbicidal activity,"AMAPA; 13 DAT, g ai/ha A-1 25, B-5 1066, growth stage 16, height 15-25 cm, water volume 187 l/ha",58%
same,% Herbicidal activity,"AMAPA; 14 DAT, g ai/ha A-1 12.5, B-5 1066, C-10 840, growth stage 12-24, height 5-30 cm, water volume 140 l/ha",73%
same,% Herbicidal activity,"AMAPA; 14 DAT, g ai/ha A-1 25, B-5 1066, C-10 840, growth stage 12-24, height 5-30 cm, water volume 140 l/ha",82%
same,% Herbicidal activity,"AMAPA; 19 DAT, g ai/ha A-1 12.5, B-5 1066, growth stage 16, height 15-25 cm, water volume 187 l/ha",40%
same,% Herbicidal activity,"AMAPA; 19 DAT, g ai/ha A-1 25, B-5 1066, growth stage 16, height 15-25 cm, water volume 187 l/ha",42%
same,% Herbicidal activity,"AMAPA; 19 DAT, g ai/ha A-1 50, B-5 1066, growth stage 16, height 15-25 cm, water volume 187 l/ha",52%
same,% Herbicidal activity,"AMAPA; 21 DAT, g ai/ha A-1 12.5, B-5 1066, growth stage 12-28, height 7-20 cm, water volume 140 l/ha",89%
same,% Herbicidal activity,"AMAPA; 21 DAT, g ai/ha A-1 50, B-5 1066, height 5-23 cm, water volume 140 l/ha",74%
same,% Herbicidal activity,"SETVE; Example 4, 21 DAT, g ai/ha A-1 12.5, B-5 1066, height 8-16 cm",65%
same,% Herbicidal activity,"SETVE; Example 6, 7 DAT, g ai/ha A-1 12.5, B-5 1066, C-11 400, height 10-15 cm",75%
same,% Herbicidal activity,"SETVE; Example 6, 21 DAT, g ai/ha A-1 12.5, B-5 1066, C-11 400, height 10-15 cm",55%
same,% Herbicidal activity,"DIGSA; 14 DAT, g ai/ha A-1 12.5, B-5 1066, height 2-8 cm, water volume 140 l/ha",33%
same,% Herbicidal activity,"DIGSA; 14 DAT, g ai/ha A-1 25, B-5 1066, height 2-8 cm, water volume 140 l/ha",33%
same,% Herbicidal activity,"DIGSA; 14 DAT, g ai/ha A-1 50, B-5 1066, height 2-8 cm, water volume 140 l/ha",65%
same,% Herbicidal activity,"DIGSA; 15 DAT, g ai/ha A-1 12.5, B-5 1066, C-10 840, growth stage 13-19, height 2-13 cm, water volume 140 l/ha",68%
same,% Herbicidal activity,"DIGSA; 21 DAT, g ai/ha A-1 12.5, B-5 1066, C-11 655, height 2-8 cm, water volume 140 l/ha",27%
same,% Herbicidal activity,"DIGSA; 21 DAT, g ai/ha A-1 12.5, B-5 1066, height 2-8 cm, water volume 140 l/ha",27%
same,% Herbicidal activity,"DIGSA; 21 DAT, g ai/ha A-1 25, B-5 1066, C-11 655, height 2-8 cm, water volume 140 l/ha",28%
same,% Herbicidal activity,"DIGSA; 21 DAT, g ai/ha A-1 25, B-5 1066, height 2-8 cm, water volume 140 l/ha",28%
same,% Herbicidal activity,"DIGSA; 21 DAT, g ai/ha A-1 50, B-5 1066, C-11 655, height 2-8 cm, water volume 140 l/ha",55%
same,% Herbicidal activity,"DIGSA; 21 DAT, g ai/ha A-1 50, B-5 1066, height 2-8 cm, water volume 140 l/ha",55%
same,% Herbicidal activity,"DIGSA; Example 6, 7 DAT, g ai/ha A-1 12.5, B-5 1066, C-11 400, growth stage 21-22, height 15-20 cm",35%
same,% Herbicidal activity,"DIGSA; Example 6, 21 DAT, g ai/ha A-1 12.5, B-5 1066, C-11 400, growth stage 21-22, height 15-20 cm",35%
